# Laboratory results taken from patent US20240352145A1, “EFFICACY OF ANTI-TROP-2-SN-38 ANTIBODY DRUG CONJUGATES FOR THERAPY OF TUMORS RELAPSED/REFRACTORY TO CHECKPOINT INHIBITORS” (Immunomedics, Inc., priority 2016, published 2024).
# Assays:
# [1] = system: BxPC-3; test: dsDNA breaks, γH2AX induction in BxPC-3; format: cell-based, human; settings: for Mean Fluorescence Intensity, γH2AX: untreated 2516 ± 191
# Description: Assessment of Double-Stranded DNA Breaks In Vitro—For drug activity testing, BxPC-3 cells were seeded in 6-well plates at 5×10^5 cells/well and held at 37° C. overnight. […] The following morning, cells were trypsinized briefly, spun down, stained with Fixable Viability Stain 450 (BD Biosciences, San Jose, CA), washed with 1% BSA-PBS, and then fixed in 4% formalin for 15 min, washed again and permeabilized in 0.15% Triton-X100 in PBS for another 15 min. After washing twice with 1% BSA-PBS, cells were incubated with mouse anti-γH2AX-AF488 (EMD Millipore Corporation, Temecula, CA) for 45 min at 4° C. The signal intensity of γH2AX was measured by flow cytometry using a BD FACSCanto (BD Biosciences, San Jose, CA).
# [2] = mouse, in vivo
# Description: Pharmacokinetics—Naive female NCr nude (nu/nu) mice, 8-10 weeks old, were purchased from Taconic Farms (Germantown, NY). […] ELISA was utilized to determine serum concentrations of total hRS7 IgG by competing for the binding to an anti-hRS7 IgG idiotype antibody with a horseradish peroxidase conjugate of hRS7. […] Pharmacokinetic (PK) parameters were computed by noncompartmental analysis using Phoenix WinNonlin software (version 6.3; Pharsight Corp., Mountainview, CA).
# [3] = system: SK-MES-1 human squamous cell lung tumors; test: SK-MES-1 xenograft therapy; format: in vivo; settings: for tumor volume (TV): 0.4 mg/kg, 28 days
# Description: (§2) NCr female athymic nude (nu/nu) mice, 4 to 8 weeks old, and male Swiss-Webster mice, 10 weeks old, were purchased from Taconic Farms. […] Tumor volume (TV) was determined by measurements in 2 dimensions using calipers, with volumes defined as: L×w^2/2, where L is the longest dimension of the tumor and w is the shortest. […] This dosing frequency reflected a consideration of the conjugate's serum half-life in vitro, to allow a more continuous exposure to the ADC.
# (§3) Statistics—Growth curves are shown as percent change in initial TV over time. Statistical analysis of tumor growth was based on area under the curve (AUC). Profiles of individual tumor growth were obtained through linear-curve modeling. An f-test was employed to determine equality of variance between groups before statistical analysis of growth curves. A 2-tailed t-test was used to assess statistical significance between the various treatment groups and controls, except for the saline control, where a 1-tailed t-test was used (significance at P≤0.05). Statistical comparisons of AUC were performed only up to the time that the first animal within a group was euthanized due to progression.
# [4] = biological target: T1, Trop-2 (Homo sapiens, UniProt P09758); test: In vitro cell binding, multiple cell lines; set-up: endogenous in cells; host or cells: human cancer cell lines (ATCC)
# T1 sequence (P09758 27-323): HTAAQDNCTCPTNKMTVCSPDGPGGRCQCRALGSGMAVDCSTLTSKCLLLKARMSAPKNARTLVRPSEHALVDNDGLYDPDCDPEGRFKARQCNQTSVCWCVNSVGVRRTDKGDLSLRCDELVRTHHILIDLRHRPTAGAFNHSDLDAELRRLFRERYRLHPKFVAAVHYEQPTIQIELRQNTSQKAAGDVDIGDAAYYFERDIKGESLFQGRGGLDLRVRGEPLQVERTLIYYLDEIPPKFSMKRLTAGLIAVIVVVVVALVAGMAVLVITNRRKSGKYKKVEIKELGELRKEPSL
# Description: In Vitro Cell Binding—LumiGLO Chemiluminescent Substrate System (KPL, Gaithersberg, MD) was used to detect antibody binding to cells. Briefly, cells were plated into a 96 black-well, flat-clear-bottom plate overnight. Antibodies were serially diluted 1:2 and added in triplicate, yielding a concentration range from 0.03 to 66.7 nM. After incubating for 1 h at 4° C., the media was removed and the cells washed with fresh cold media followed by the addition of a 1:20,000 dilution of goat-antihuman horseradish peroxidase-conjugated secondary antibody (Jackson Immunoresearch, West Grove, PA) for 1 h at 4° C. The plates were again washed before the addition of the LumiGLO reagent. Plates were read for luminescence using an Envision plate reader (Perkin Elmer, Boston MA). Data were analyzed by non-linear regression to determine the equilibrium dissociation constant (KD). Statistical comparisons of KD-values were made with Prism GraphPad Software (v4.03) (Advanced Graphics Software, Inc.; Encinitas, CA) using an F-Test on the best-fit curves for the data. Significance was set at P<0.05.
# [5] = biological target: T2, rhTrop-2/TACSTD2 (Homo sapiens, UniProt P09758); test: Surface plasmon resonance (BIACORE), Trop-2; format: binding; settings: for Kd: low-density Trop-2 chip, three independent runs, read-out: binding affinity (KD)
# T2 construct: purchased Sino Biological, Inc
# T2 sequence (P09758 27-323): T1 sequence (P09758 27-323)
# Description: (§1) Surface Plasmon Resonance Binding (BIACORE)—Briefly, rhTrop-2/TACSTD2 (Sino Biological, Inc.) or recombinant human neonatal receptor (FcRn), produced as described (Wang et al., 2011, Drug Metab Dispos 39:1469-77), was immobilized with an amine coupling kit (GE Healthcare; Cat. No. BR-1000-50) on a CM5 sensor chip (GE Healthcare; Cat. #BR-1000-12) following manufacturer's instructions for a low-density chip. […] Each set would make up a separate run on the BIACORE (BIACORE-X; Biacore Inc., Piscataway, NJ) and data were analyzed using BIAevaluation Software (Biacore Inc., v4.1). Analysis was performed with a 1:1 (Langmuir) Binding Model and Fit, using all five concentration points for each sample run to determine the best fit (lowest χ^2 value). The KDvalue was calculated using the formula KD=kd1/ka1, where kd1 is the dissociation rate-constant and ka1 is the association-rate constant.
# [6] = system: Capan-1; test: Combination 90Y-hPAM4 RAIT + ADC, Capan-1 xenograft; format: in vivo, mouse
# Description: Objective responses occurred in most animals, but they were more robust in both of the combination groups as compared to each agent given alone. […] These studies provide the first evidence that combined radioimmunotherapy and ADC enhances efficacy at safe doses.
# [7] = system: COLO 205 tumors; test: COLO 205 xenograft therapy; format: in vivo
# Description: as §2, §3
# [8] = biological target: T3, recombinant human neonatal receptor (FcRn) (Homo sapiens, UniProt P55899); test: Surface plasmon resonance (BIACORE), FcRn; format: binding; settings: low-density FcRn chip, three independent runs
# T3 construct: made in house
# Description: as §1
# [9] = CDC activity; format: cell-based
# [10] = system: p21^Waf1/Cip1 and p53; test: Signaling events (p21Waf1/Cip1, p53) in Calu-3; format: cell-based, human
# Description: Our initial studies examined the expression of 2 proteins involved in early signaling events (p21^Waf1/Cip1 and p53) and 1 late apoptotic event [cleavage of poly-ADP-ribose polymerase (PARP)] in vitro (not shown).
# [11] = system: MDA-MB-468; test: ADCC LDH-release, MDA-MB-468; format: cell-based, human; settings: for specific lysis (ADCC): MDA-MB-468, 33.3 nM, E:T 50:1, 4 h
# Description: The next day, peripheral blood mononuclear effector cells (PBMCs) were freshly isolated from a donor and added to assigned wells on the reaction plate at an E:T ratio of 50:1. Acquisition of human PBMCs was done under the approval of the New England Institutional Review Board (Newton, MA). […] One set of wells received ADCC assay medium alone for background control and another set of wells received cells alone plus TritonX100 for maximum cells lysis control. The plate was incubated for 4 h at 37° C. After 4 h, target cell lysis was assessed by a homogenous fluorometric LDH release assay (Cyto Tox-One Homogenous Membrane Integrity Assay; Promega, Cat. G7891).
# Data were analyzed by Microsoft Excel. Percent specific lysis was calculated as follows:
# where: • Experimental: effector+target cells+antibody • Effector+Target Control: effector+target cells • Max. Lysis: target cells+Triton-X100 • Target Control: target cells only
# T3 sequence (P55899 24-297 limits assumed): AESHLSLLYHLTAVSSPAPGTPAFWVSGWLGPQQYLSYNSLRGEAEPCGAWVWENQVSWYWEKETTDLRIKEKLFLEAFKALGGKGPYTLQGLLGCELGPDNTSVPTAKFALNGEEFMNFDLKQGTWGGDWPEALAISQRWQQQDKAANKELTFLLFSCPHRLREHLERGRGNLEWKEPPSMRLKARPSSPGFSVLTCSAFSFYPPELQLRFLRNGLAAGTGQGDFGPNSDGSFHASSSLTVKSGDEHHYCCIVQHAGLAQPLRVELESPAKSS
# T3 sequence (P61769 21-119 partner): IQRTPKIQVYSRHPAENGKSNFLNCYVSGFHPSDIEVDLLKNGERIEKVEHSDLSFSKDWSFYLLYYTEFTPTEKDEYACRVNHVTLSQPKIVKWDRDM
Substance,"Mean Fluorescence Intensity, γH2AX ([1]; BxPC-3, 20 μg/ml for 30 min)","alpha half-life of hRS7 IgG ([2]; iv, 200 ug)","beta half-life of hRS7 IgG ([2]; iv, 200 ug) [h]",tumor volume (TV) [3] [cm^3],KD [4],Kd [5] [nM],Kd [8] [nM],CDC activity [9],exposure time at which p53 upregulation is evident [10] [h],specific lysis (ADCC) [11] [%],other results
IMMU-132,5349 ± 234,approximately 3 h,~200,0.36±0.25,sub-nanomolar range,0.26 ± 0.14,192 ± 47.6,no CDC activity,≤ 24,8.6±2.6,"induction of γH2AX vs non-targeting control ADC ([1]; BxPC-3, 30 min exposure): greater than two-fold induction; MRT of carrier hRS7 antibody [2]: ~300 h; half-life of intact conjugate ([2]; iv, 200 ug): 11 h; tolerability, body weight loss ([3]; in all murine studies): well tolerated in terms of body weight loss; improvement in KD vs naked hRS7 ([5]; BIACORE): 2 fold; tumor-free mice after 20 weeks ([6]; 75 μCi 90Y-hPAM4 level, ADC alone, or their combination, n=10): 1 of 10; tumor growth vs untreated and hA20-CL2A-SN-38 ([7]; 0.4 mg/kg SN-38 twice weekly x 4 weeks): significantly inhibited tumor growth; loss of effector function (ADCC) ([11]; three different cell lines): 60-70%"
hRS7 IgG,2297 ± 18,approximately 3 h,~200,1.30±1.08,sub-nanomolar range,0.51 ± 0.04,92.4 ± 5.7,no CDC activity,48,29.8±2.6,"Percent Positive, γH2AX ([1]; BxPC-3, 20 μg/ml for 30 min, untreated 18.8 ± 6.3): 13.0 ± 0.6%; anti-tumor activity of unconjugated antibodies ([6]; given alone): Neither unconjugated hPAM4 nor hRS7 antibodies had anti-tumor activity; tumor volume (TV) ([7]; 0.4 mg/kg, q4dx8, 28-day treatment period): 1.77±0.93 cm^3"
